What was measured:
[1] = tested on: Karpas 422 cells; assay: Karpas 422 cell viability, CTG (Cell Titre Glo) assay; format: cell-based, human; conditions: Homo sapiens; Inhibition of proliferation of Karpas 422 cells (EZH2 Y641N); viability measured Day 4, Day 7 or Day 11, time point of the tabulated values not stated
Procedure: Karpas 422 cell line is a human B cell non-Hodgkin's lymphoma cell line established from a patient having DLBCL. This EZH2 heterozygotic cell line expresses a mutant form of EZH2 enzyme (Y641N) that increases histone H3 methylation and this mutation has been implicated in the tumorgenesis of lymphomas, such as DLBCL.
Karpas 422 cells (PHE cat no., 06101702) were cultured in RPMI medium supplemented with 20% fetal bovine serum and 1% penicillin/1% streptomycin and plated at a density of 1000 cells/90 µl/well in 96 well white assay plates. A dose response curve for compounds of the present invention was determined by adding a 10µl aliquot of stock solutions of varying concentrations of compounds to the same medium in each well, over a concentration range of 10µM using 3-fold dilutions to a final concentration of 1.5nM. The plates were incubated at 37° C for predetermined time periods, Day 4, Day 7, or Day 11, and the viability of the cells was measured using a CTG assay kit (Cell Titre Glo; Promega cat.no G7573) on Day 4 and Day 7 in accordance with the manufacturer's instructions.
For the viability assay for the Day 11 plates, the plates were subjected to centrifugation at 1100 rpm for five minutes on Day 7 and the supernatant was removed by aspiration. The cells were resuspended in 90 µl aliquot of the appropriate growth medium lacking the compound followed by addition of 10 µl of a 10X stock of the same compound at the same concentration. The viability of the Day 11 cells was measured using the CTG assay kit described above in accordance with the manufacturer's instructions. The IC50 values for each compound at each predetermined time point were calculated using Graph pad PRISM software and the results are shown in Table 15. A = ≤250 nM; B = […] - ≤500 nM; and C = >500 nM.

[2] = target: purified human, His-tagged PRC2 complex (Homo sapiens, UniProt O75530+Q15910); assay: Hot Spot HMT assay: inhibition of PRC2 enzymatic activity (transfer of tritiated methyl from SAM to core histone, filter binding); format: biochemical; conditions: Inhibition of PRC2-mediated enzymatic activity; 10 nM PRC2 complex, 0.05 mg/ml core histone H3, 1 uM 3H-SAM, 1 hr at 30°C
purified human, His-tagged PRC2 complex, sequence (Q15910 whole entry): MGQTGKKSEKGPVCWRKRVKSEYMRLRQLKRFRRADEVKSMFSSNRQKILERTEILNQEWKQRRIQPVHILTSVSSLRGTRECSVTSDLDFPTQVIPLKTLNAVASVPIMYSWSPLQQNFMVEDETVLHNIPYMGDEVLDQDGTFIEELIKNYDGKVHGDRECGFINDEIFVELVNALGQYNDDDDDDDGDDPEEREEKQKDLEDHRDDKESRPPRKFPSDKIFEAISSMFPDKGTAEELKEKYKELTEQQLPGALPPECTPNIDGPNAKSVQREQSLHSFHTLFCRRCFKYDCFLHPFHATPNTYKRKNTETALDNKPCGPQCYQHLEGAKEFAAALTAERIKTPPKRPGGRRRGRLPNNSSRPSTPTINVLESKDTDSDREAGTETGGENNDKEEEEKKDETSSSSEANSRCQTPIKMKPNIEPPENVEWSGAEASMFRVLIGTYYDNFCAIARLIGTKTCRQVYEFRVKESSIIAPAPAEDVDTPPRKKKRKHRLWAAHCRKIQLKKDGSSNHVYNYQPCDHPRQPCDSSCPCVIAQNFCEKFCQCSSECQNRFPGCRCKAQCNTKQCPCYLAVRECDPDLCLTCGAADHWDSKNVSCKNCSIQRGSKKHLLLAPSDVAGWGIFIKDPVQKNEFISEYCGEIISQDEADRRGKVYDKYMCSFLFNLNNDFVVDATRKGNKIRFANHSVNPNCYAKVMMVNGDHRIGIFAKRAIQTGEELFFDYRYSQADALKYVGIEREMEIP
purified human, His-tagged PRC2 complex, sequence (O75530 whole entry): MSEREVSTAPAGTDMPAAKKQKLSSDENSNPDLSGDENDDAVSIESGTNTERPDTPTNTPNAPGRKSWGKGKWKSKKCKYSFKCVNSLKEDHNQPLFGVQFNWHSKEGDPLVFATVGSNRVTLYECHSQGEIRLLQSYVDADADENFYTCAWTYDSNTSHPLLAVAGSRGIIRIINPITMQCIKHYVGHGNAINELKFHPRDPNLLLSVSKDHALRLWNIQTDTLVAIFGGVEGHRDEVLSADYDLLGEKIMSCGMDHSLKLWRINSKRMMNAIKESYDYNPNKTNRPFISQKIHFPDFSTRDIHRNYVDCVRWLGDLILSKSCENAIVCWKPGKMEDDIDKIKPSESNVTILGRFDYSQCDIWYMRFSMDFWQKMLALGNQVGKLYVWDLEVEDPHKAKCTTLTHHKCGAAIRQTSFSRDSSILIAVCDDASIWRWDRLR
purified human, His-tagged PRC2 complex, sequence (Q15022 whole entry partner): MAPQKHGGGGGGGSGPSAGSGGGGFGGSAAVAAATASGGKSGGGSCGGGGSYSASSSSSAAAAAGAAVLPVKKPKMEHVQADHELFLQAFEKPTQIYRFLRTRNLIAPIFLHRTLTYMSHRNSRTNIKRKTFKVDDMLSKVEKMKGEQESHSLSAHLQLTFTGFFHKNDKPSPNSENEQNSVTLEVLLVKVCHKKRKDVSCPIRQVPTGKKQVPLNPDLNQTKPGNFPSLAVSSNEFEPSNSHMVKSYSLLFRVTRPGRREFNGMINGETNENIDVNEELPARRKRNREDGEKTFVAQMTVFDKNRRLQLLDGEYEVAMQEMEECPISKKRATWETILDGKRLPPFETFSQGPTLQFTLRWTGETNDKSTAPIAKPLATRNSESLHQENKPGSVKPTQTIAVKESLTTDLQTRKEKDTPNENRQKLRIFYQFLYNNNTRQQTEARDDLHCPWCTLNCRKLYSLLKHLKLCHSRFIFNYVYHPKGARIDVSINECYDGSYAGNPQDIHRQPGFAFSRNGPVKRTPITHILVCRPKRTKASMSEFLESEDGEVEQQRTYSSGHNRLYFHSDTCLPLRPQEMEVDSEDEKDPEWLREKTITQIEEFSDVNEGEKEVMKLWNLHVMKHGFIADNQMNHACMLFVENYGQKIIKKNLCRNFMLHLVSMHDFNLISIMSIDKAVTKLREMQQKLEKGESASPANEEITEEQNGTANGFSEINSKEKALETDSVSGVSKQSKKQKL
purified human, His-tagged PRC2 complex, sequence (Q6ZN18 whole entry partner): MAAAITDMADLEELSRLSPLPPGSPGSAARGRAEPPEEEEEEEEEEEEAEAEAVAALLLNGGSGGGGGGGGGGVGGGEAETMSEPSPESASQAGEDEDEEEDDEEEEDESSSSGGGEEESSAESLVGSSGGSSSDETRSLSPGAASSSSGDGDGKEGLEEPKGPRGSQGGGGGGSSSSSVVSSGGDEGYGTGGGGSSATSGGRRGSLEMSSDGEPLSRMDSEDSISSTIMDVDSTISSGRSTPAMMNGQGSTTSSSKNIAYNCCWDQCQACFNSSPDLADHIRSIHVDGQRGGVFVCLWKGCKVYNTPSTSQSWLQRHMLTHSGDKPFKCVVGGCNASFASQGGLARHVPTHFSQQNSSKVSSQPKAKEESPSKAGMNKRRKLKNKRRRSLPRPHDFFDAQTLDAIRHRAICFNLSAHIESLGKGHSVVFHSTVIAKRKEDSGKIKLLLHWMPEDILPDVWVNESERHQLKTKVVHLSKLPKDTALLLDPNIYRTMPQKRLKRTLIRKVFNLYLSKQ
purified human, His-tagged PRC2 complex, sequence (Q09028 whole entry partner): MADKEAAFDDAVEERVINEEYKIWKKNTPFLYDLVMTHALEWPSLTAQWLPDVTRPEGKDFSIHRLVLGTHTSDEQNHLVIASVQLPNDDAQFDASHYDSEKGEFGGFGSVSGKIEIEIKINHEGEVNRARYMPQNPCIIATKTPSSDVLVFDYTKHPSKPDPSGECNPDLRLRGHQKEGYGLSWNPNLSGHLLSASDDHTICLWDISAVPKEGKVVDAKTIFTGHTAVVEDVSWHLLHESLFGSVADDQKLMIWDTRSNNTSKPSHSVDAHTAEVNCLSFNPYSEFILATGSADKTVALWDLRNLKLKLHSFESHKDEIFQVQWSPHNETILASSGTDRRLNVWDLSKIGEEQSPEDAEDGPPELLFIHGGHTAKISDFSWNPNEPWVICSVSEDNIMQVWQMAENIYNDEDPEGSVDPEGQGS
Summary of the method: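 Serial compound dilutions starting at 1.0 µM were pre-incubated 20 min at 30°C with 10 nM complex (His-EZH2, Flag-EED, His-SUZ12, His-AEBP2, His-RbAp48) and 0.05 mg/ml core H3. Reaction ran 1 hr at 30°C after adding 1 uM [3H]-SAM; scintillation counting followed filtration.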

Structure (SMILES) | IC50 [1] | IC50 [2]
N#Cc1cn2c(NCc3c(F)ccc4c3CCO4)ncc(-c3cnn(CC(F)(F)F)c3)c2n1 [Example 108, 5-(((5-fluoro-2,3-dihydrobenzofuran-4-yl)methyl)amino)-8-(1-(2,2,2-trifluoroethyl)-1H-pyrazol-4-yl)imidazo[1,2-c]pyrimidine-2-carbonitrile] | ≤ 250 nM | < 100 nM
Cc1ncncc1-c1cnc(NCc2c(F)ccc3c2CCO3)n2cc(C#N)nc12 [Example 110, 5-(((5-fluoro-2,3-dihydrobenzofuran-4-yl)methyl)amino)-8-(4-methylpyrimidin-5-yl)imidazo[1,2-c]pyrimidine-2-carbonitrile] | ≤ 250 nM | < 100 nM
CN(C)Cc1ccc(-c2cnc(NCc3c(F)ccc4c3CCO4)n3cc(C#N)nc23)cc1 [Example 112, 8-(4-((dimethylamino)methyl)phenyl)-5-(((5-fluoro-2,3-dihydrobenzofuran-4-yl)methyl)amino)imidazo[1,2-c]pyrimidine-2-carbonitrile] | ≤ 250 nM | < 100 nM
COc1cc(-c2cnc(NCc3c(F)ccc4c3CCO4)n3cc(C#N)nc23)ccn1 [Example 113, 5-(((5-fluoro-2,3-dihydrobenzofuran-4-yl)methyl)amino)-8-(2-methoxypyridin-4-yl)imidazo[1,2-c]pyrimidine-2-carbonitrile] | > 500 nM | < 100 nM
Cn1nccc1-c1cnc(NCc2c(F)ccc3c2CCO3)n2cc(C#N)nc12 [Example 114, 5-(((5-fluoro-2,3-dihydrobenzofuran-4-yl)methyl)amino)-8-(1-methyl-1H-pyrazol-5-yl)imidazo[1,2-c]pyrimidine-2-carbonitrile] | ≤ 250 nM | < 100 nM
CN1CCN(C(=O)c2ccc(-c3cnc(NCc4c(F)ccc5c4CCO5)n4cc(C#N)nc34)cc2)CC1 [Example 115, 5-(((5-fluoro-2,3-dihydrobenzofuran-4-yl)methyl)amino)-8-(4-(4-methylpiperazine-1-carbonyl)phenyl)imidazo[1,2-c]pyrimidine-2-carbonitrile] | ≤ 250 nM | < 100 nM
N#Cc1cn2c(NCc3c(F)ccc4c3CCO4)ncc(-c3ccc(C4CC4)nc3)c2n1 [Example 116, 8-(6-cyclopropylpyridin-3-yl)-5-(((5-fluoro-2,3-dihydrobenzofuran-4-yl)methyl)amino)imidazo[1,2-c]pyrimidine-2-carbonitrile] | ≤ 250 nM | < 100 nM
COCCn1cc(-c2cnc(NCc3c(F)ccc4c3CCO4)n3cc(C#N)nc23)cn1 [Example 117, 5-(((5-fluoro-2,3-dihydrobenzofuran-4-yl)methyl)amino)-8-(1-(2-methoxyethyl)-1H-pyrazol-4-yl)imidazo[1,2-c]pyrimidine-2-carbonitrile] | ≤ 250 nM | 100 to 500 nM
N#Cc1cn2c(NCc3c(F)ccc4c3CCO4)ncc(-c3cnn(C4CCCCO4)c3)c2n1 (stereo not shown) [Example 118, 5-(((5-fluoro-2,3-dihydrobenzofuran-4-yl)methyl)amino)-8-(1-(tetrahydro-2H-pyran-2-yl)-1H-pyrazol-4-yl)imidazo[1,2-c]pyrimidine-2-carbonitrile] | > 500 nM | < 100 nM
CCn1cc(-c2cnc(NCc3c(F)ccc4c3CCO4)n3cc(C#N)nc23)cn1 [Example 119, 8-(1-ethyl-1H-pyrazol-4-yl)-5-(((5-fluoro-2,3-dihydrobenzofuran-4-yl)methyl)amino)imidazo[1,2-c]pyrimidine-2-carbonitrile] | ≤ 250 nM | 100 to 500 nM
CC(C)(O)Cn1cc(-c2cnc(NCc3c(F)ccc4c3CCO4)n3cc(C#N)nc23)cn1 [Example 121, 5-(((5-fluoro-2,3-dihydrobenzofuran-4-yl)methyl)amino)-8-(1-(2-hydroxy-2-methylpropyl)-1H-pyrazol-4-yl)imidazo[1,2-c]pyrimidine-2-carbonitrile] | 250 to 500 nM | < 100 nM
CCOc1ncccc1-c1cnc(NCc2c(F)ccc3c2CCO3)n2cc(C#N)nc12 [Example 124, 8-(2-ethoxypyridin-3-yl)-5-(((5-fluoro-2,3-dihydrobenzofuran-4-yl)methyl)amino)imidazo[1,2-c]pyrimidine-2-carbonitrile] | > 500 nM | < 100 nM
N#Cc1cn2c(NCc3c(F)ccc4c3CCO4)ncc(-c3ccc(N)nc3)c2n1 [Example 127, 8-(6-aminopyridin-3-yl)-5-(((5-fluoro-2,3-dihydrobenzofuran-4-yl)methyl)amino)imidazo[1,2-c]pyrimidine-2-carbonitrile] | 250 to 500 nM | < 100 nM
N#Cc1ccc(-c2cnc(NCc3c(F)ccc4c3CCO4)n3cc(C#N)nc23)cn1 [Example 128, 8-(6-cyanopyridin-3-yl)-5-(((5-fluoro-2,3-dihydrobenzofuran-4-yl)methyl)amino)imidazo[1,2-c]pyrimidine-2-carbonitrile] | > 500 nM | < 100 nM
Cc1ncc(-c2cnc(NCc3c(F)ccc4c3CCO4)n3cc(C#N)nc23)cc1N [Example 129, 8-(5-amino-6-methylpyridin-3-yl)-5-(((5-fluoro-2,3-dihydrobenzofuran-4-yl)methyl)amino)imidazo[1,2-c]pyrimidine-2-carbonitrile] | ≤ 250 nM | < 100 nM
COc1ncc(-c2cnc(NCc3c(F)ccc4c3CCO4)n3cc(C#N)nc23)cc1C#N [Example 130, 8-(5-cyano-6-methoxypyridin-3-yl)-5-(((5-fluoro-2,3-dihydrobenzofuran-4-yl)methyl)amino)imidazo[1,2-c]pyrimidine-2-carbonitrile] | > 500 nM | 100 to 500 nM
N#Cc1cn2c(NCc3c(F)ccc4c3CCO4)ncc(-c3cncc(C(F)(F)F)c3)c2n1 [Example 132, 5-(((5-fluoro-2,3-dihydrobenzofuran-4-yl)methyl)amino)-8-(5-(trifluoromethyl)pyridin-3-yl)imidazo[1,2-c]pyrimidine-2-carbonitrile] | 250 to 500 nM | > 500 nM
CC(C)Oc1ccc(-c2cnc(NCc3c(F)ccc4c3CCO4)n3cc(C#N)nc23)cn1 [Example 133, 5-(((5-fluoro-2,3-dihydrobenzofuran-4-yl)methyl)amino)-8-(6-isopropoxypyridin-3-yl)imidazo[1,2-c]pyrimidine-2-carbonitrile] | > 500 nM | < 100 nM
Cc1nc(N2CCN(C)CC2)ccc1-c1cnc(NCc2c(F)ccc3c2CCO3)n2cc(C#N)nc12 [Example 136, 5-(((5-fluoro-2,3-dihydrobenzofuran-4-yl)methyl)amino)-8-(2-methyl-6-(4-methylpiperazin-1-yl)pyridin-3-yl)imidazo[1,2-c]pyrimidine-2-carbonitrile] | ≤ 250 nM | 100 to 500 nM
Cc1nc(N2CCN(C)CC2)ccc1-c1cnc(NCc2c(F)ccc3c2CCO3)n2cc(C(N)=O)nc12 [Example 138, 5-(((5-fluoro-2,3-dihydrobenzofuran-4-yl)methyl)amino)-8-(2-methyl-6-(4-methylpiperazin-1-yl)pyridin-3-yl)imidazo[1,2-c]pyrimidine-2-carboxamide] | ≤ 250 nM | < 100 nM
N#Cc1cn2c(NCc3c(F)ccc4c3CCO4)ncc(-c3cccnn3)c2n1 [Example 142, 5-(((5-fluoro-2,3-dihydrobenzofuran-4-yl)methyl)amino)-8-(pyridazin-3-yl)imidazo[1,2-c]pyrimidine-2-carbonitrile] | ≤ 250 nM | < 100 nM
N#Cc1cn2c(NCc3c(F)ccc4c3CCO4)ncc(-c3ccc(CO)nc3)c2n1 [Example 147, 5-(((5-fluoro-2,3-dihydrobenzofuran-4-yl)methyl)amino)-8-(6-(hydroxymethyl)pyridin-3-yl)imidazo[1,2-c]pyrimidine-2-carbonitrile] | ≤ 250 nM | 100 to 500 nM
CN(C)Cc1c(F)cc(-c2cnc(NCc3c(F)ccc4c3CCO4)n3cc(C#N)nc23)cc1F [Example 149, 8-(4-((dimethylamino)methyl)-3,5-difluorophenyl)-5-(((5-fluoro-2,3-dihydrobenzofuran-4-yl)methyl)amino)imidazo[1,2-c]pyrimidine-2-carbonitrile] | ≤ 250 nM | 100 to 500 nM
